In patent US20230174521A1, “NOVEL DIACYLGLYCERIDE O-ACYLTRANSFERASE 2 INHIBITORS” (Merck Sharp & Dohme LLC, priority 2020, published 2023):

molecular target: T1, human DGAT2 (hDGAT2) (Homo sapiens, UniProt Q96PD7); assay: DGAT2 enzymatic activity assay (LC/MS/MS detection of 13C18-triolein, Sf-9 membrane prep); type: biochemical; conditions: hDGAT2 Sf-9 membrane, 25 μM diolein, 5 μM 13C oleoyl-CoA, rt
T1 construct: made in house; host or cells: Sf-9 insect cells (baculovirus infection); membrane fraction
T1 sequence (Q96PD7 1-388): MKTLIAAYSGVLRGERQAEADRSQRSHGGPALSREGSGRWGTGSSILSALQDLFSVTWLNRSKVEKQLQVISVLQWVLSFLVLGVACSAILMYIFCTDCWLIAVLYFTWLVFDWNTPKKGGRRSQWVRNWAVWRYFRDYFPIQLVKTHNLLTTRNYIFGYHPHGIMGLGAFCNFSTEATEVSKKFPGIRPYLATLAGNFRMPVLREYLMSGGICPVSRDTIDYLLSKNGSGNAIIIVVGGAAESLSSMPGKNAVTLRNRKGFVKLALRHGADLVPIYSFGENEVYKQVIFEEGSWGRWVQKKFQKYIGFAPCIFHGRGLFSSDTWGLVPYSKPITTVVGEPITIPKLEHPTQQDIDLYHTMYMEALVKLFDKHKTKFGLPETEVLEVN
Description: Sf-9 insect cells were maintained in Grace's insect cell culture medium with 10% heated-inactivated fetal bovine serum, 1% Pluronic F-68 and 0.14 μg/ml Kanamycine sulfate at 27° C. in a shaker incubator. After infection with untagged baculovirus expressing human DGAT2 (hDGAT2) at multiplicity of infection (MOI) 3 for 48 hours, cells were harvested. Cell pellets were suspended in buffer containing 10 mM Tris-HCl pH 7.5, 1 mM EDTA, 250 mM sucrose and Complete Protease Inhibitor Cocktail (Sigma Aldrich), and sonicated on ice. Cell debris were removed by centrifugation at 2000×g for 15 minutes. Membrane fractions were isolated by ultracentrifugation (100,000×g), resuspended in the same buffer, and frozen (−80° C.) for later use. The protein concentration was determined with the Pierce™ BCA Protein Assay Kit (Thermo Fisher Scientific). Expression of protein levels was analyzed by immunoblotting with rabbit anti-DGAT2 antibody (Abcam, ab102831) and donkey anti-rabbit IgG H&L Alexa Fluor® 647 (Abcam, ab150075) followed by detection using Typhoon FLA9000 (GE Healthcare).
LC/MS/MS analyses were performed using Thermal Fisher's LX4-TSQ Vantage system. This system consists of an Agilent binary high-performance liquid chromatography (HPLC) pumps and a TSQ Vantage triple quadrupole MS/MS instrument. For each sample, 2 μL samples from the top organic layer of in-plate liquid-liquid extraction were injected onto a Thermo Betabasic C4 column (2.1 mm×20 mm, 5 μm particle size). The samples were then eluted using the following conditions; mobile phase: Isopropanol: acetonitrile/10 mM ammonium formate=50/35/15 (v/v/v), flow rate: 0.8 mL/min, temperature: 25° C. Data was acquired in positive mode using a heated electrospray ionization (HESI) interface. The operational parameters for the TSQ Vantage MS/MS instrument were a spray voltage of 3000 V, capillary temperature of 280° C., vaporizer temperature 400° C., sheath gas 45 arbitrary unit, Aux gas 10 arbitrary units, S-lens 165 and collision gas 1.0 mTorr. […] (SRM) chromatograms of ^13C18-triolein (Q1: 920.8>Q3:621.3) and internal standard ^13C21-triolein (Q1: 923.8>Q3:617.3) were collected for 33 sec. The peak area was integrated by Xcalibur Quan software. The ratio between the ^13C18triolein generated in the reaction and spiked in internal standard ^13C21-triolein was used to generate percentage inhibition and IC50 values. Compound percentage inhibition was calculated by the following formula: Inhibition %=1−[(compound response−low control)/(high control−low control)]×100%. Potent compounds were titrated and IC50 were calculated by 4 parameter sigmoidal curve fitting formula.
DGAT2 activity was determined by measuring the amount of enzymatic product ^13C18-triolein (^13C-1,2,3-Tri(cis-9-octadecenoyl)glycerol) using the membrane prep mentioned above. The assay was carried out in ABgene 384-well assay plates in a final volume of 25 μL at rt. The assay mixture contained the following: assay buffer (100 mM Tris.Cl, pH 7.0, 20 mM MgCl2, 5% ethanol), 25 μM of diolein, 5 μM of ^13C oleoyl-CoA and 8 ng/μL of DGAT2 membrane.

Row | IC50 [nM] | Structure (SMILES)
1 | 16 | CC(C)c1nn(-c2cccc(OC(F)F)c2)c2ncc(C(=O)N[C@@]3(C)CCS(=O)(=O)C3)cc12 [Example 11, (S)-1-(3-(difluoromethoxy)phenyl)-3-isopropyl-N-(3-methyl-1,1-dioxidotetrahydrothlophen-3-yl)-1H-pyrazolo[3,4-b]pyridine-5-carboxamide]
2 | 7.1 | CC1(NC(=O)c2cnc3c(c2)c(C2CCOCC2)nn3-c2cccc(OC(F)F)c2)CS(=O)(=O)C1 [Example 21]
3 | 51 | CC1(NC(=O)c2ccc3c(c2)c(C2(O)CCOCC2)nn3-c2cccc(OC(F)F)c2)CS(=O)(=O)C1 [Example 22]
4 | 91 | CC1(NC(=O)c2cnc3c(c2)c(C(C)(C)O)nn3-c2cncc(OC(F)F)c2)CS(=O)(=O)C1 [Example 47, 1-(5-(difluoromethoxy)pyridin-3-yl)-3-(2-hydroxypropan-2-yl)-N-(3-methyl-1,1-dioxidothietan-3-yl)-1H-pyrazolo[3,4-b]pyridine-5-carboxamide]
5 | 6.7 | CCCc1nn(-c2cccc(OC(F)F)c2)c2ncc(C(=O)N[C@@]3(C)CCS(=O)(=O)C3)cc12 [Example 15, (S)-1-(3-(difluoromethoxy)phenyl)-N-(3-methyl-1,1-dioxidotetrahydrothiophen-3-yl)-3-propyl-1H-pyrazolo[3,4-b]pyridine-5-carboxamide]
6 | 134 | CC1(NC(=O)c2ccc3c(ccn3-c3cccc(OC(F)F)c3)c2)CS(=O)(=O)C1 [Example 8, 1-(3-(difluoromethoxy)phenyl)-N-(3-methyl-1,1-dioxidothietan-3-yl)-1H-indole-5-carboxamide]
7 | 9.3 | CC(C)c1nn(-c2cccc(OC(F)F)c2)c2ncc(C(=O)NC3(C)CS(=O)(=O)C3)cc12 [Example 12]
8 | 56 | CC(C)c1nn(-c2cncc(OC(F)F)c2)c2ccc(C(=O)NC3(C)CS(=O)(=O)C3)cc12 [Example 18]
9 | 78 | CCC(O)c1nn(-c2cccc(OC(F)F)c2)c2ccc(C(=O)NC3(C)CS(=O)(=O)C3)cc12 (racemic) [Example 28, 1-(3-(difluoromethoxy)phenyl)-3-(1-hydroxypropyl)-N-(3-methyl-1,1-dioxidothietan-3-yl)-1H-indazole-5-carboxamide]
10 | 25 | CC1(NC(=O)c2cnc3c(c2)c(C(C)(C)O)nn3-c2cc(OC(F)F)ccc2F)CS(=O)(=O)C1 [Example 41, l-(5-(difluoromethoxy)-2-fluorophenyl)-3-(2-hydroxypropan-2-yl)-N-(3-methyl-1,1-dioxidothietan-3-yl)-1H-pyrazolo[3,4-b]pyridine-5-carboxamide]
11 | 0.3 | C[C@]1(NC(=O)c2ccc3c(c2)c(Oc2ccc(F)cc2)nn3-c2cccc(OC(F)F)c2)CCS(=O)(=O)C1 [Example 54, (S)-1-(3-(difluoromethoxy)phenyl)-3-(4-fluorophenoxy)-N-(3-methyl-1,1-dioxidotetrahydrothiophen-3-yl)-1H-indazole-5-carboxamide]
12 | 38 | CC(O)c1nn(-c2cccc(OC(F)F)c2)c2ncc(C(=O)NC3(C)CS(=O)(=O)C3)cc12 (single isomer, unassigned) [Example 38a, 1-(3-(difluoromethoxy)phenyl)-3-(l-hydroxyethyl)-N-(3-methyl-1,1-dioxidothietan-3-yl)-1H-pyrazolo[3,4-b]pyridine-5-carboxamide]
13 | 351 | C[C@]1(NC(=O)c2ccc3c(c2)c(N2CCC[C@H]2C(=O)O)nn3-c2cccc(OC(F)F)c2)CCS(=O)(=O)C1 [Example 49, (2S)-1-[1-[3-(difluoromethoxy)phenyl]-5-[[(3S)-3-methyl-1,1-dioxo-thiolan-3-yl]carbamoyl]indazol-3-yl]pyrrolidine-2-carboxylic acid]
